Legend:
[1] = tested on: T1, CcOMT1; assay: HPLC of methylated product, Michaelis-Menten non-linear fit; type: biochemical, Citrus reticulata; conditions: 5 mM SAM, pH 6.0 phosphate, 50 °C, 2 h, 1 mM DTT
T1 construct: full-length cDNA from CRC leaf cDNA library, BamHI/XhoI in pET-28a(+), E. coli BL21(DE3), Ni-NTA purified; ORF printed 1080 bp but 366 aa printed (inconsistent); primers encode N-terminus MGSTSSE, C-terminus MEFLKSA
Description: HPLC of methylated product, Michaelis-Menten non-linear fit on CcOMT1 | To determine the kinetic parameters of CcOMT1, the Michaelis–Menten constant (Km) was determined

[2] = tested on: T1, CcOMT1; assay: as above; type: biochemical, Citrus reticulata; conditions: 5 mM SAM, pH 6.0 phosphate, 50 °C, 2 h, 1 mM DTT; remark: listed apart in the source
From the text: HPLC of methylated product, Michaelis-Menten non-linear fit on CcOMT1 | For kinetic studies of CcOMT1 and its variant CcOMT1-W141Y toward natsudaidain

Km [1]: 25.4 ± 11.3 µM
Km [2]: 20.8 ± 7.6 µM
SMILES: COc1ccc(-c2oc3c(OC)c(OC)c(OC)c(OC)c3c(=O)c2O)cc1OC [compound 1, natsudaidain]
